Where “and” joins values, the source holds several entries; their conditions need not be identical. Identical values can stand only once. Like-named read-outs stand apart in the source and are kept apart here.

The subject of experiment [1] is T1, Plasmodium falciparum Dd2-attB (parental line), asexual blood stages.
T1 construct: Dd2-attB, the isogenic parental line
In words: microbe, parasite or virus in culture. Set-up: replicate k of 3 (each line is one of three independent assays; the three lines of one compound and parasite line follow each other). The following applies: n = 1; for AC50: Plasmodium falciparum, DD2, 72 h, read-out: Individual replicates / Log AC50 (converted); for Individual replicates / Log AC50 (M): 72 h. Summed up: (§1)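 Both lines were tested side by side with selected compounds, repeated in three independent assays. Differences between parental and ScDHODH-expressing parasites were then assessed with a two-sided Student's t-test.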

The test system of experiment [2] is T2, Plasmodium falciparum Dd2-attB-ScDHODH (transgenic line expressing yeast DHODH), asexual blood stages.
T2 construct: Dd2-attB-ScDHODH, the transgenic line that expresses yeast DHODH
In words: organism not typed. Set-up: replicate k of 3 (each line is one of three independent assays; the three lines of one compound and parasite line follow each other). The following applies: 72 h, n = 1; for AC50: read-out: Individual replicates / Log AC50 (converted). A digest of the protocol: as §1

The test system of experiment [3] is T1, Plasmodium falciparum Dd2-attB (parental line), asexual blood stages. In words: microbe, parasite or virus in culture. Set-up: species or system P. falciparum Dd2-attB in human erythrocytes; SYBR Green-I proliferation assay, Dd2-attB parental line, asexual blood stages. The following applies: 72 h; for AC50: Plasmodium falciparum, DD2, Erythrocyte, read-out: Calculated / Average Log AC50 (M), mean of replicates, 72 h (converted).

Regarding `O=C(c1cccc(-c2cc(O)c3ncccc3c2)c1)N1CCN(CCCN2CCOCC2)CC1` [NCGC00247764-01], the AC50 in experiment [1] is 17.8 µM; in experiment [2], 17.8 µM; in experiment [3], 2e-05 M.
Consider `CCC(C)C1=N[S+](=O)([O-])c2cc(NC(=O)C3CC3)ccc2N1c1ccccc1` (stereo not drawn) [NCGC00474156-01], for which the “Individual replicates / Log AC50 (M)” value was -5.9486 Log AC50 (M) and -5.5986 Log AC50 (M) (2×) in experiment [1]; -5.1986 Log AC50 (M) and -5.1486 Log AC50 (M) in experiment [2]. For the same molecule, the AC50 was 8.94 µM in experiment [2] and 1.93e-06 M in experiment [3].
In the case of `Oc1ccc(/C=C/c2c(F)cccc2F)c2cccnc12` [NCGC00184904-01], the “Individual replicates / Log AC50 (M)” value is -5.0986 Log AC50 (M) and -5.0486 Log AC50 (M) in experiment [1]; -4.7486 Log AC50 (M) and -4.7986 Log AC50 (M) in experiment [2]. In addition, the AC50 in experiment [1] was 14.2 µM; in experiment [3] it was 1e-05 M.
On to `O=C(O)CCNc1cc(N2CCc3ccccc3CC2)nc(-c2cccnc2)n1` [NCGC00351549-02], for which the “Individual replicates / Log AC50 (M)” value in experiment [1] was -4.9986 Log AC50 (M) and -4.8486 Log AC50 (M); in experiment [2], -4.8486 Log AC50 (M) (2×) and -4.7986 Log AC50 (M). The AC50 in experiment [1] is 14.2 µM. Further, the “Calculated / Average Log AC50 (M)” value in experiment [3] (mean of replicates, inhibitor, Calculated / Average Log AC50 (M)) was -4.8986 M.
Take `CC(C)(C)OC(=O)NC1CCN(c2cc(-c3ccc(Cl)cc3)[nH]n2)C1` (stereo not drawn) [NCGC00490648-01]: the values for the AC50 in experiment [1], in experiment [2] and in experiment [3] were 11.3 µM, 10 µM and 1.59e-05 M, respectively.
As to `CC(C)OC(=O)c1ccnc2cc(C(OCCN3CCCCC3)c3cccc(NC(=O)/C=C/CN(C)C)c3)sc12` (stereo not drawn) [NCGC00493268-01], the “Individual replicates / Log AC50 (M)” value is -5.5986 Log AC50 (M) and -5.5486 Log AC50 (M) in experiment [1]; -5.4486 Log AC50 (M) and -5.1486 Log AC50 (M) in experiment [2]. The AC50 is 5.03 µM in experiment [1] and 3.3e-06 M in experiment [3].
For `Cc1nn2c(c1-c1ccccc1Oc1ccccc1)N(Cc1ccccc1)CCC2` [NCGC00499717-01], the “Individual replicates / Log AC50 (M)” value in experiment [1] is -4.9986 Log AC50 (M) and -4.7486 Log AC50 (M); in experiment [2], -4.7986 Log AC50 (M). The AC50 in experiment [1] was 15.9 µM; in experiment [2], 15.9 µM; in experiment [3] it was 1.42e-05 M.
On to `Cc1ccc(NC(=O)C(N[S+](=O)([O-])c2ccc3c(c2)CCC(=O)N3)c2ccccc2)cc1C` (stereo not drawn) [NCGC00110290-01], for which the AC50 was 17.8 µM in experiment [1], 8.94 µM in experiment [2] and 1.59e-05 M in experiment [3].
Turning to `Oc1ccc(CNc2cc(C(F)(F)F)ccn2)c2cccnc12` [NCGC00241027-01], the “Individual replicates / Log AC50 (M)” value in experiment [1] is -5.0986 Log AC50 (M) and -5.0486 Log AC50 (M); in experiment [2] it was -4.8486 Log AC50 (M). In addition, the AC50 was 14.2 µM in experiment [1], 7.1 µM in experiment [2] and 1e-05 M in experiment [3].
Take `O=C(O)c1ccncc1Nc1nn(CCN2CCC(F)(F)CC2)c2ccc(F)cc12` [NCGC00384162-01]: the figures for the AC50 in experiment [1], in experiment [2] and in experiment [3] were 15.9 µM, 17.8 µM and 1.93e-05 M, respectively.
Consider `Oc1ccc(CCc2ccccc2F)c2cccnc12` [NCGC00184905-01], for which the “Individual replicates / Log AC50 (M)” value in experiment [1] is -5.1986 Log AC50 (M) and -4.7486 Log AC50 (M). For the same molecule, the AC50 in experiment [2] is 15.9 µM; in experiment [3], 1.31e-05 M.
Turning to `CCOC(=O)c1c2ccc(C(=O)N3CCOCC3)cc2n2ccccc12` [NCGC00390098-01], the “Individual replicates / Log AC50 (M)” value in experiment [1] is on record as -5.0486 Log AC50 (M). For the same molecule, the AC50 in experiment [1] was 14.2 µM; in experiment [2], 7.1 µM; in experiment [3] it was 1.26e-05 M.
In the case of `CC(NCCN1CCCCC1)c1cnn(-c2cc(CO)ccn2)c1-c1cccc(-c2ccccc2)c1` (stereo not drawn) [NCGC00479100-01], the AC50 in experiment [1] was 8.94 µM; in experiment [2], 8.94 µM; in experiment [3], 3.99e-06 M.
For `O=[S+]([O-])(Nc1ccc(O)c2ncccc12)c1ccccc1F` [NCGC00184887-02], the “Individual replicates / Log AC50 (M)” value in experiment [1] is -4.8986 Log AC50 (M) and -5.0486 Log AC50 (M) (2×); in experiment [2] it was -4.9486 Log AC50 (M) and -4.8486 Log AC50 (M). Also, in experiment [3], the AC50 was 1e-05 M.

These data come from paper PMC7822874, “Chemoprotective antimalarials identified through quantitative high-throughput screening of Plasmodium blood and liver stage parasites” (Scientific Reports, 2021).
